# Measured values reported in ChEMBL document CHEMBL3885881, “DrugMatrix”.
# Organism: Rattus norvegicus
# Assay: DrugMatrix - Regimen: Daily Repeat
# Format: toxicity, organism-based, Sprague-Dawley
# Design: regimen Daily Repeat, gender Male, age 6-8 weeks
# Conditions: in vivo, po, route oral GAVAGE; for ABSOLUTE BASOPHIL / ABSOLUTE EOSINOPHIL / ABSOLUTE LYMPHOCYTE / ABSOLUTE MONOCYTE / ABSOLUTE SEGMENTED NEUTROPHIL / BASOPHIL / EOSINOPHIL / ERYTHROCYTE COUNT / HEMATOCRIT / HEMOGLOBIN / LEUKOCYTE COUNT / LYMPHOCYTE / MEAN CORPUSCULAR HEMOGLOBIN / MEAN CORPUSCULAR HEMOGLOBIN CONCENTRATION / MEAN CORPUSCULAR VOLUME / MONOCYTE / NEUTROPHIL / NUCLEATED RED BLOOD CELLS / PLATELET COUNT: tissue Blood; for ALANINE AMINOTRANSFERASE / ALBUMIN / ALKALINE PHOSPHATASE / ASPARTATE AMINOTRANSFERASE / BLOOD UREA NITROGEN / CARBON DIOXIDE / CHLORIDE / CHOLESTEROL / CREATINE PHOSPHOKINASE / CREATININE / GLUCOSE / LACTATE DEHYDROGENASE / LIPASE / PHOSPHORUS / POTASSIUM / SODIUM / TOTAL BILIRUBIN / TOTAL PROTEIN / URIC ACID: tissue Plasma
# [1] = 0 mg/kg, 72 h, dose level Control, time 3 day, […]
# [2] = 0 mg/kg, 72 h, dose level Control, time 3 day, vehicle 100 % WATER
# [3] = 0 mg/kg, 120 h, dose level Control, time 5 day, […]
# [4] = 0 mg/kg, 120 h, dose level Control, time 5 day, vehicle 100 % WATER
# [5] = 20 mg/kg, 72 h, dose level Low, time 3 day, […]
# [6] = 20 mg/kg, 120 h, dose level Low, time 5 day, […]
structure (smiles),measurement,setting,value
Cn1cnc([N+](=O)[O-])c1Sc1ncnc2nc[nH]c12 [AZATHIOPRINE],ABSOLUTE BASOPHIL,[1],0 CELLS/uL
same,ABSOLUTE EOSINOPHIL,[1],0 CELLS/uL
same,ABSOLUTE LYMPHOCYTE,[1],7601 CELLS/uL
same,ABSOLUTE MONOCYTE,[1],354.33 CELLS/uL
same,ABSOLUTE SEGMENTED NEUTROPHIL,[1],744.67 CELLS/uL
same,BASOPHIL,[1],0%
same,EOSINOPHIL,[1],0%
same,ERYTHROCYTE COUNT,[1],5.03 x10E6/uL
same,HEMATOCRIT,[1],33.7%
same,HEMOGLOBIN,[1],13.43 G/DL
same,LEUKOCYTE COUNT,[1],8.7 x10E3/uL
same,LYMPHOCYTE,[1],86.33%
same,MEAN CORPUSCULAR HEMOGLOBIN,[1],26.7 pg
same,MEAN CORPUSCULAR HEMOGLOBIN CONCENTRATION,[1],39.83 G/DL
same,MEAN CORPUSCULAR VOLUME,[1],67 fL
same,MONOCYTE,[1],4.67%
same,NEUTROPHIL,[1],9%
same,NUCLEATED RED BLOOD CELLS,[1],0 /100WBC
same,PLATELET COUNT,[1],1151 x10E3/uL
same,ABSOLUTE EOSINOPHIL,[2],91.5 CELLS/uL
same,ABSOLUTE LYMPHOCYTE,[2],14108.83 CELLS/uL
same,ABSOLUTE MONOCYTE,[2],81 CELLS/uL
same,ABSOLUTE SEGMENTED NEUTROPHIL,[2],818.67 CELLS/uL
same,EOSINOPHIL,[2],0.67%
same,ERYTHROCYTE COUNT,[2],5.56 x10E6/uL
same,HEMATOCRIT,[2],34.5%
same,HEMOGLOBIN,[2],13.45 G/DL
same,LEUKOCYTE COUNT,[2],15.1 x10E3/uL
same,LYMPHOCYTE,[2],93%
same,MEAN CORPUSCULAR HEMOGLOBIN,[2],24.2 pg
same,MEAN CORPUSCULAR HEMOGLOBIN CONCENTRATION,[2],38.98 G/DL
same,MEAN CORPUSCULAR VOLUME,[2],62.07 fL
same,MONOCYTE,[2],0.5%
same,NEUTROPHIL,[2],5.83%
same,PLATELET COUNT,[2],1193.33 x10E3/uL
same,ALANINE AMINOTRANSFERASE,[1],97.67 u/L
same,ALBUMIN,[1],4.07 G/DL
same,ALKALINE PHOSPHATASE,[1],607.67 u/L
same,ASPARTATE AMINOTRANSFERASE,[1],101 u/L
same,BLOOD UREA NITROGEN,[1],13.33 mg/dL
same,CARBON DIOXIDE,[1],36 mmol/L
same,CHLORIDE,[1],99.67 MEQ/L
same,CHOLESTEROL,[1],75.67 mg/dL
same,CREATINE PHOSPHOKINASE,[1],279.67 u/L
same,CREATININE,[1],0.16 mg/dL
same,GLUCOSE,[1],164 mg/dL
same,LACTATE DEHYDROGENASE,[1],115 u/L
same,LIPASE,[1],12.67 u/L
same,PHOSPHORUS,[1],8.77 mg/dL
same,POTASSIUM,[1],5.79 MEQ/L
same,SODIUM,[1],142.83 MEQ/L
same,TOTAL BILIRUBIN,[1],0.27 mg/dL
same,TOTAL PROTEIN,[1],5.8 G/DL
same,URIC ACID,[1],0.67 mg/dL
same,ALANINE AMINOTRANSFERASE,[2],60.33 u/L
same,ALBUMIN,[2],4 G/DL
same,ALKALINE PHOSPHATASE,[2],334.83 u/L
same,ASPARTATE AMINOTRANSFERASE,[2],74.5 u/L
same,BLOOD UREA NITROGEN,[2],13.5 mg/dL
same,CARBON DIOXIDE,[2],30.33 mmol/L
same,CHLORIDE,[2],98.33 MEQ/L
same,CHOLESTEROL,[2],71.17 mg/dL
same,CREATINE PHOSPHOKINASE,[2],212 u/L
same,CREATININE,[2],0.21 mg/dL
same,GLUCOSE,[2],173.17 mg/dL
same,LACTATE DEHYDROGENASE,[2],101.5 u/L
same,LIPASE,[2],24.17 u/L
same,PHOSPHORUS,[2],10.87 mg/dL
same,POTASSIUM,[2],6.06 MEQ/L
same,SODIUM,[2],140.58 MEQ/L
same,TOTAL BILIRUBIN,[2],0.17 mg/dL
same,TOTAL PROTEIN,[2],5.9 G/DL
same,URIC ACID,[2],1.23 mg/dL
same,ABSOLUTE BASOPHIL,[3],0 CELLS/uL
same,ABSOLUTE EOSINOPHIL,[3],0 CELLS/uL
same,ABSOLUTE LYMPHOCYTE,[3],4426.33 CELLS/uL
same,ABSOLUTE MONOCYTE,[3],102.67 CELLS/uL
same,ABSOLUTE SEGMENTED NEUTROPHIL,[3],337.67 CELLS/uL
same,BASOPHIL,[3],0%
same,EOSINOPHIL,[3],0%
same,ERYTHROCYTE COUNT,[3],5.31 x10E6/uL
same,HEMATOCRIT,[3],32.5%
same,HEMOGLOBIN,[3],13.17 G/DL
same,LEUKOCYTE COUNT,[3],4.87 x10E3/uL
same,LYMPHOCYTE,[3],90.33%
same,MEAN CORPUSCULAR HEMOGLOBIN,[3],24.93 pg
same,MEAN CORPUSCULAR HEMOGLOBIN CONCENTRATION,[3],40.67 G/DL
same,MEAN CORPUSCULAR VOLUME,[3],61.33 fL
same,MONOCYTE,[3],2.33%
same,NEUTROPHIL,[3],7.33%
same,NUCLEATED RED BLOOD CELLS,[3],0.33 /100WBC
same,PLATELET COUNT,[3],848.33 x10E3/uL
same,ABSOLUTE EOSINOPHIL,[4],34.5 CELLS/uL
same,ABSOLUTE LYMPHOCYTE,[4],8181 CELLS/uL
same,ABSOLUTE MONOCYTE,[4],82.67 CELLS/uL
same,ABSOLUTE SEGMENTED NEUTROPHIL,[4],435.17 CELLS/uL
same,EOSINOPHIL,[4],0.5%
same,HEMATOCRIT,[4],33.83%
same,HEMOGLOBIN,[4],13.37 G/DL
same,LEUKOCYTE COUNT,[4],8.73 x10E3/uL
same,LYMPHOCYTE,[4],93.5%
same,MEAN CORPUSCULAR HEMOGLOBIN,[4],25.2 pg
same,MEAN CORPUSCULAR HEMOGLOBIN CONCENTRATION,[4],39.53 G/DL
same,MEAN CORPUSCULAR VOLUME,[4],63.73 fL
same,MONOCYTE,[4],1%
same,NEUTROPHIL,[4],5%
same,NUCLEATED RED BLOOD CELLS,[4],0 /100WBC
same,PLATELET COUNT,[4],1057.33 x10E3/uL
same,ALANINE AMINOTRANSFERASE,[3],59.67 u/L
same,ALBUMIN,[3],3.87 G/DL
same,ALKALINE PHOSPHATASE,[3],452 u/L
same,ASPARTATE AMINOTRANSFERASE,[3],81.33 u/L
same,BLOOD UREA NITROGEN,[3],13.67 mg/dL
same,CARBON DIOXIDE,[3],26.33 mmol/L
same,CHLORIDE,[3],103.67 MEQ/L
same,CHOLESTEROL,[3],65.67 mg/dL
same,CREATINE PHOSPHOKINASE,[3],355.33 u/L
same,CREATININE,[3],0.14 mg/dL
same,GLUCOSE,[3],171.33 mg/dL
same,LACTATE DEHYDROGENASE,[3],118 u/L
same,LIPASE,[3],11.33 u/L
same,PHOSPHORUS,[3],11.13 mg/dL
same,POTASSIUM,[3],5.18 MEQ/L
same,SODIUM,[3],143.17 MEQ/L
same,TOTAL BILIRUBIN,[3],0.2 mg/dL
same,TOTAL PROTEIN,[3],5.87 G/DL
same,URIC ACID,[3],0.63 mg/dL
same,ALANINE AMINOTRANSFERASE,[4],54.33 u/L
same,ALBUMIN,[4],4.07 G/DL
same,ALKALINE PHOSPHATASE,[4],308.67 u/L
same,ASPARTATE AMINOTRANSFERASE,[4],83.17 u/L
same,BLOOD UREA NITROGEN,[4],14 mg/dL
same,CARBON DIOXIDE,[4],34 mmol/L
same,CHLORIDE,[4],98 MEQ/L
same,CHOLESTEROL,[4],71.33 mg/dL
same,CREATINE PHOSPHOKINASE,[4],266.5 u/L
same,CREATININE,[4],0.27 mg/dL
same,GLUCOSE,[4],133 mg/dL
same,LACTATE DEHYDROGENASE,[4],127 u/L
same,LIPASE,[4],11.67 u/L
same,PHOSPHORUS,[4],10.6 mg/dL
same,POTASSIUM,[4],6.17 MEQ/L
same,SODIUM,[4],142.68 MEQ/L
same,TOTAL BILIRUBIN,[4],0.15 mg/dL
same,TOTAL PROTEIN,[4],6.03 G/DL
same,URIC ACID,[4],0.75 mg/dL
same,ABSOLUTE BASOPHIL,[5],0 CELLS/uL
same,ABSOLUTE EOSINOPHIL,[5],0 CELLS/uL
same,ABSOLUTE LYMPHOCYTE,[5],5839.67 CELLS/uL
same,ABSOLUTE MONOCYTE,[5],204 CELLS/uL
same,ABSOLUTE SEGMENTED NEUTROPHIL,[5],256.33 CELLS/uL
same,BASOPHIL,[5],0%
same,EOSINOPHIL,[5],0%
same,ERYTHROCYTE COUNT,[5],4.55 x10E6/uL
same,HEMATOCRIT,[5],29%
same,HEMOGLOBIN,[5],11.47 G/DL
same,LEUKOCYTE COUNT,[5],6.3 x10E3/uL
same,LYMPHOCYTE,[5],93%
same,MEAN CORPUSCULAR HEMOGLOBIN,[5],25.37 pg
same,MEAN CORPUSCULAR HEMOGLOBIN CONCENTRATION,[5],39.7 G/DL
same,MEAN CORPUSCULAR VOLUME,[5],64 fL
same,MONOCYTE,[5],3%
same,NEUTROPHIL,[5],4%
same,NUCLEATED RED BLOOD CELLS,[5],0.33 /100WBC
same,PLATELET COUNT,[5],1104.33 x10E3/uL
same,ALANINE AMINOTRANSFERASE,[5],61 u/L
same,ALBUMIN,[5],4.2 G/DL
same,ALKALINE PHOSPHATASE,[5],326.33 u/L
same,ASPARTATE AMINOTRANSFERASE,[5],82 u/L
same,BLOOD UREA NITROGEN,[5],14 mg/dL
same,CARBON DIOXIDE,[5],39.33 mmol/L
same,CHLORIDE,[5],106.33 MEQ/L
same,CHOLESTEROL,[5],92.67 mg/dL
same,CREATINE PHOSPHOKINASE,[5],229 u/L
same,CREATININE,[5],0.21 mg/dL
same,GLUCOSE,[5],156.33 mg/dL
same,LACTATE DEHYDROGENASE,[5],82.67 u/L
same,LIPASE,[5],11 u/L
same,PHOSPHORUS,[5],9.27 mg/dL
same,POTASSIUM,[5],5.07 MEQ/L
same,SODIUM,[5],137.8 MEQ/L
same,TOTAL BILIRUBIN,[5],0.1 mg/dL
same,TOTAL PROTEIN,[5],6.23 G/DL
same,URIC ACID,[5],0.5 mg/dL
same,ABSOLUTE BASOPHIL,[6],0 CELLS/uL
same,ABSOLUTE EOSINOPHIL,[6],0 CELLS/uL
same,ABSOLUTE LYMPHOCYTE,[6],5125.67 CELLS/uL
